The test system of this assay is fibrosarcoma cell line. As to the kind of experiment: screening model for ferroptosis, MTT cell viability assay with ferroptosis inducer Erastin. The format is cell-based. Particulars: Erastin 10 μM; 72 h; average of three tests. The method, then: In this example, in order to study the inhibitor of ferroptosis, a screening model for ferroptosis was constructed in house, and the details are as follows:
The screening model for ferroptosis mainly used the MTT cell viability assay. First, the fibrosarcoma cell line was cultured in a dish, and the cells in the logarithmic growth phase were seeded in a 96-well plate in specific numbers (3000-10000 cells/well), 100 μL per well, and then cultured in an incubator at 37° C. and 5% CO2 to allow the cells to adhere. After 24 h, 100 μL of compounds at certain concentrations prepared in the indicated medium and the ferroptosis inducer Erastin (final concentration of 10 μM) were added, and wells in triplicate were set up for each compound to ensure the accuracy of the results. A negative control group, positive control group (5 μM of ferrostain-1), blank control group and solvent control group were also set. After dosing, cells were placed in the incubator and cultured for 72h. […] The next day, the absorbance value at 570 nm was detected with a microplate reader to calculate the inhibition rate of the drug on ferroptosis. Generally, the absorbance value of the control group should be between 0.8-1.2 as a normal value. After obtaining the absorbance value data, the average value of wells in triplicate was calculated, and the inhibition rate was calculated using the following formula: […]
For orientation: Tetrazolium dyes change colour on reduction, which living cells bring about.

Molecules are shown by their SMILES.

One may read the EC50 as the concentration giving half of the maximal effect. Low values mean an effect from little substance, high ones a need for much substance. The compound `C=C(c1ccc2c(c1)Nc1ccccc1S2)c1cnc2c(cnn2C)c1` [Compound 28] displayed an EC50 of 58 nM.
